The record followed here is US20200000871A1, “B-1A LYMPHOCYTE AND/OR MACROPHAGE TARGETING AND ACTIVATION TO TREAT MEDICAL CONDITIONS WITH INFLAMMATORY OR AUTOIMMUNE COMPONENTS” (THE BOARD OF TRUSTEES OF THE LELAND STANFORD JUNIOR …, priority 2015, published 2020).

Where no end group is shown, it is not given here.

The test system of one series is peritoneal cells. As to the kind of experiment: Viability of peritoneal cells incubated in vitro with fibrils. It is filed as cell-based, C57BL/6 mice. As to conditions: 1.0-0.125 μg/well, 30 or 120 minutes, PI staining. How it is done:
FIG. 3. […] Peritoneal cells were isolated by lavage of C57BL/6 mice, aliquoted 500,000 cells per well of a 96 well round bottomed plate and treated with 1.0, 0.5, 0.25, 0.125 μg/well of Amylin 28-33 for 30 minutes or 120 minutes in DMEM with 10% FCS. At the end of the incubation the cells were spun, supernatant aspirated, and the cells were stained with rat anti-mouse CD11b (Pacific Blue), CD5 (PE), CD19 (APC), and incubated for 30 minutes on ice. The cells were washed once, aspirate transferred to FACS tubes, PI added, and analyzed by flow cytometry.

The test system of series [1] is B-1a lymphocytes and peritoneal MΦs (SPM, LPM). Briefly: Differential gene expression (microarray, qPCR) in sorted B-1a lymphocytes and peritoneal MΦs after i.p. injection. As to conditions: 10 μg i.p., cells isolated 30-40 minutes after injection. It counts as in vivo, C57BL/6 mice. How it is done: Total RNA was extracted from FACS purified B-1a lymphocytes and peritoneal MΦs pooled from 3-6 C57BL/6 female mice injected with 10 μg of LPS, Tau 623-628, Amylin 28-33, or PBS using Trizol reagent and the Qiagen RNeasy micro kit. First strand cDNA was synthesized with 30-50 ng of total RNA using Superscript III first strand synthesis supermix for qRT-PCR. QPCR assays were performed using the 7900HT Fast Real Time PCR System (Applied Biosystems), and the Taqman Gene Expression Arrays (Applied Biosystems) using commercially available primers (ABI). All assays were performed according to manufacturer's instructions. The comparative Ct method for relative quantification (ΔΔCt) was used to compare gene expression. […]
Gene expression changes associated with treatment with LPS, Amylin 28-33, and Tau 623-628, were quantified using a microarray (SurePrint G3 Mouse; Agilent Technologies). […] Analysis and quantitation of the data were done using GeneSpring and Ingenuity software.
To confirm and increase the understanding of how the fibrils are activating the peritoneal cells, differential gene induction in purified B-1a and LPMs was analyzed. […] B-1a lymphocytes (CD19^hiCD5^+CD23^−) and LPMs (CD11b^hi MΦs) from the four groups of three mice were sorted into Trizol, RNA extracted, and gene expression measured using a murine Agilent whole genome expression microchip. […]
(Real-time PCR tracks product formation cycle by cycle.)

The test system of a further series is μMT mice with EAE. Briefly: EAE in B cell-deficient μMT mice, with or without adoptive transfer of B-1a lymphocytes. It counts as in vivo. As to conditions: 10 μg daily i.p., no cell transfer. The method, then: Induction of active EAE in mice by immunization with MOG and adjuvant. EAE was induced in female wild type C57Bl/6 mice or μMT and IL-10 deficient mice on C57B/6 background (Jackson Laboratories) by procedures previously described. Briefly, EAE was induced at 9 weeks of age by subcutaneous immunization in the flank with an emulsion containing 200 μg myelin oligodendrocyte glycoprotein35-55 (MOG35-55; […] (SEQ ID NO: 1065)) in saline and an equal volume of complete Freund's adjuvant containing […] mycobacterium tuberculosis H37RA (Disco Laboratories). All mice were given 400 ng of pertussis toxin (List Biological) intraperitoneal (i.p.) at 0 and 48 h post-immunization. The signs of neurological impairment were scored as follows: 0, no clinical disease; 1, tail weakness; 2, hindlimb weakness; 3, complete hindlimb paralysis; 4, hindlimb paralysis and some forelimb weakness; 5, moribund or dead. […] For intranasal inoculation, 10 μg of Amylin 28-33 in 10 μl PBS was gradually released into the nostrils of anesthetized mice. All animal protocols were approved by institutional IACUC.
B-1a lymphocytes were purified by cell sorting of peritoneal cells from wild type C57Bl/6 mice. […] Mice were examined daily for clinical signs of EAE and were scored on a five point scale described above.

For series [2], the system named is peritoneal cells (B-1a and B-2 lymphocytes, LPMs, T lymphocytes, mast cells). As to the kind of experiment: Binding and endocytosis of FITC-Tau fibrils by peritoneal cells after i.p. injection (confocal microscopy, flow cytometry). It is filed as in vivo, C57BL/6 mice. As to conditions: 10 μg i.p., peritoneal cells stained for CD19 and F4/80. The method, then:
C57B/6 female mice were injected with FITC-Tau 623-628, and peritoneal cells were isolated after 10 minutes, washed, stained with rat antimouse CD19 (PE), F4/80 (Alexa Fluor 647), and DAPI, washed, and plated on polylysine coated microscope slides. Cells were visualized using a Leica TCS SP8 white light laser confocal microscope.
Peptides were synthesized using solid phase techniques and commercially available Fmoc amino acids, resins, and reagents (PE Biosystems, Foster City Calif., and Bache, Torrance, Calif.) on an Applied Biosystems 433A peptide synthesizer as previously described. Wender et al. (2000) Proc. Natl. Acad. Sci. USA 97(24):13003-13008. […] The molecular weight of the peptides was confirmed using matrix assisted laser desorption mass spectrometry. To prevent excess amounts of fluorophore in the fibrils, Tau 623-628 was mixed at a ratio of 10:1 with an analog with FITC attached to the amino terminus of Tau 623-628 with an amino caproic acid linker. The resulting fibril mixture is referred to in the text as FITC-Tau.
Peritoneal cavity cells were obtained by flushing the peritoneal cavity with 10 ml of cold PBS containing 0.1% bovine serum albumin and 5 mM EDTA. […]
In general terms: In flow cytometry, cells or beads pass a laser one at a time.

Series [3] deals with B-1a lymphocytes and LPMs. As to the kind of experiment: Bioluminescence imaging of trafficking of adoptively transferred luc+ B-1a lymphocytes and LPMs. It counts as in vivo, C57BL/6 albino mice. How it is done:
B-1a lymphocytes and peritoneal MΦs were purified by cell sorting of peritoneal cells isolated from luciferase transgenic mice ((B6.FVB-Ptprca Tg(CAG-luc,-GFP)L2G85Chco Thy1a/J), which express the CAT-luc-eGFP, L2G85 transgene). In the initial experiment 2×10^5 and 1×10^5 B-1a lymphocytes were injected in the peritoneum of C57BL/6 female albino mice (B6(Cg)-Tyr^c-2J/J), followed by injection of 10 μg of Tau 623-628 to activate the lymphocytes, and 0.3 mg/g body weight of luciferin substrate (D luciferin firefly L-8220 Biosynth) to initiate the bioluminescence imaging. The location of the luciferase expressing cells was measured by imaging every 5 minutes for 75 minutes.
To confirm the diminution of luminescence was due to the trafficking of the luc^+ cells, and not the degradation of the luciferin, two C57BL/6 albino mice were injected with […] peritoneal MΦs, a third with 2×10^5 B-1a lymphocytes, and fourth mouse serving as a BLI control was injected with luciferin only. The mice were subsequently injected with 10 μg of Tau 623-628 and 0.3 mg/gram of luciferin. Bioluminescence was measured immediately after the injection of luciferin and 5 minutes later. After thirty minutes the mice were reinjected with luciferin and the resultant luminescence measured. […] Imaging data were analyzed and quantified with Living Image software 4.4 (Xenogen).
Amyloidogenic peptides induce exodus of B-1a lymphocytes and LPM from the peritoneal cavity. […] The location of the luciferase expressing cells was monitored by imaging the mice every 5 minutes for 75 minutes (FIG. 5, top left). The diffuse distribution of the luminescence, corresponding to the peritoneal cavity, seen at early times, was reduced in intensity over time, with focal regions of intensity appearing to localize in inguinal lymph nodes beginning at 35 minutes (FIG. 5, top left). […]
To better assign the basis of the reduction of luminescence to the migration of the luc^+ cells, a second experiment was performed with four recipient mice. […] Bioluminescence was measured immediately after the injection of luciferin and 5 minutes later. […]

A further series concerns PBMCs. As to the kind of experiment: Type 1 IFN response and cytokine production in PBMCs of treated mice. As to conditions: mouse, in vivo.

Regarding SSTNVG [Amylin 28-33, SSTNVG], in the series with peritoneal cells, the “cell viability / cell death of peritoneal cells in vitro” value is “does not affect cell viability”.
As to “VQIVYK [Tau 623-628, amyloidogenic hexapeptide of tau, forms amyloid fibrils]”, the “pattern of gene expression (microarray heatmap)” value in series [1] was “induce a different pattern of gene expression than LPS”. The “therapeutic effect on paralytic signs of EAE in μMT mice” value in the series on μMT mice with EAE is on record as “neither Tau 623-628, nor Amylin 28-33 was therapeutic”. In addition, in series [2], the “binding and endocytosis of fibrils by B cells and MΦs (confocal microscopy)” value was “bind and are endocytosed”. Moreover, the “increase in luminescence over inguinal lymph nodes” value in series [3] (60 min compared with 5 min, luc+ LPMs, 10 μg i.p.) is given as approximately 10 fold. Moreover, the “time at which focal luminescence begins to localize in inguinal lymph nodes” value in series [3] (luc+ B-1a lymphocytes, 10 μg i.p.) worked out at 35 min. Besides, in series [3] (luc+ B-1a lymphocytes, over 75 minutes), the “photons per second in the abdominal region” value is “rapid, dose dependent, reduction of light emitted”. In addition, the “type 1 IFN induction” value with PBMCs was “induced a type 1 interferon (IFN) response”.
